From the supplement of paper PMC10307832

What was measured:
Assay in all cases: relative viability (nuclei count vs DMSO), 5 days (fraction); higher = more cells survive
Dactolisib + OSI-027 = compound: Cn1c(=O)n(-c2ccc(C(C)(C)C#N)cc2)c2c3cc(-c4cnc5ccccc5c4)ccc3ncc21 [Dactolisib] + COc1cccc2cc(-c3nc([C@H]4CC[C@H](C(=O)O)CC4)n4ncnc(N)c34)[nH]c12 [OSI-027] (partner 0.5 µM)
Outline: (§1)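 Values are medians from duplicate plates. Each reflects relative viability, defined as the nuclei count of treated wells over that of vehicle wells. Lung cancer cell lines in 1536-well plates were pin-tool dosed one day after seeding with one drug alone or with a fixed anchor-drug dose plus five library-drug doses (not always all listed) in √10 steps, then fixed, stained and imaged at 4× after 5 days.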

AZ505 + Pictilisib = compound: C1CCC(CC1)N(CCNCCC2=C3C(=C(C=C2)O)NC(=O)CO3)C(=O)CCNCCC4=CC(=C(C=C4)Cl)Cl [AZ505] + CS(=O)(=O)N1CCN(Cc2cc3nc(-c4cccc5[nH]ncc45)nc(N4CCOCC4)c3s2)CC1 [Pictilisib] (partner 1 µM)
Outline: as §1

Dactolisib + AZD7762 = compound: Cn1c(=O)n(-c2ccc(C(C)(C)C#N)cc2)c2c3cc(-c4cnc5ccccc5c4)ccc3ncc21 [Dactolisib] + NC(=O)Nc1cc(-c2cccc(F)c2)sc1C(=O)N[C@H]1CCCNC1 [AZD7762] (partner 0.2 µM)
Outline: as §1

AZ505 + Luminespib = compound: C1CCC(CC1)N(CCNCCC2=C3C(=C(C=C2)O)NC(=O)CO3)C(=O)CCNCCC4=CC(=C(C=C4)Cl)Cl [AZ505] + CCNC(=O)c1noc(-c2cc(C(C)C)c(O)cc2O)c1-c1ccc(CN2CCOCC2)cc1 [Luminespib] (partner 0.01 µM)
Outline: as §1

Cell Line	relative viability (Dactolisib + OSI-027; first compound 0.002 µM)	relative viability (Dactolisib + OSI-027; first compound 0.006325 µM)	relative viability (Dactolisib + OSI-027; first compound 0.02 µM)	relative viability (Dactolisib + OSI-027; first compound 0.06325 µM)	relative viability (Dactolisib + OSI-027; first compound 0.2 µM)	relative viability (AZ505 + Pictilisib; first compound 0.253 µM)	relative viability (AZ505 + Pictilisib; first compound 0.8 µM)	relative viability (AZ505 + Pictilisib; first compound 2.53 µM)	relative viability (AZ505 + Pictilisib; first compound 8 µM)	relative viability (Dactolisib + AZD7762; first compound 0.002 µM)	relative viability (Dactolisib + AZD7762; first compound 0.006325 µM)	relative viability (Dactolisib + AZD7762; first compound 0.02 µM)	relative viability (Dactolisib + AZD7762; first compound 0.06325 µM)	relative viability (Dactolisib + AZD7762; first compound 0.2 µM)	relative viability (AZ505 + Pictilisib; first compound 0.08 µM)	relative viability (AZ505 + Luminespib; first compound 0.08 µM)	relative viability (AZ505 + Luminespib; first compound 0.253 µM)	relative viability (AZ505 + Luminespib; first compound 0.8 µM)	relative viability (AZ505 + Luminespib; first compound 2.53 µM)	relative viability (AZ505 + Luminespib; first compound 8 µM)
HCC-78	0.439	0.411	0.376	0.396	0.332	0.219	0.179	0.264	0.289	0.627	0.712	0.553	0.484	0.242	–	–	–	–	–	–
HCC-366	0.924	0.863	0.889	0.469	0.556	0.186	0.123	0.128	0.18	0.198	0.27	0.238	0.203	0.0362	0.136	–	–	–	–	–
IA-LM	–	–	–	–	–	0.419	0.292	0.415	0.432	–	–	–	–	–	–	–	–	–	–	–
NCI-H520	0.285	0.303	0.308	0.204	0.189	0.273	0.284	0.272	0.259	–	–	–	–	–	0.264	0.232	0.186	0.312	0.239	0.211
NCI-H522	0.719	0.728	0.881	0.671	0.539	–	–	–	–	0.83	0.858	0.979	0.695	0.626	–	1.12	1.19	1.2	1.33	1.18
NCI-H661	0.701	0.759	0.652	0.366	0.339	0.357	0.392	0.563	0.45	–	–	–	–	–	–	0.879	0.928	0.909	0.914	0.928
NCI-H1299	–	–	–	–	–	0.672	0.703	0.546	0.722	–	–	–	–	–	0.576	–	–	–	–	–
NCI-H1563	0.746	0.772	0.685	0.648	0.598	0.62	0.695	0.595	0.609	–	–	–	–	–	0.612	0.478	0.504	0.522	0.473	0.508
NCI-H1623	0.49	0.431	0.46	0.38	0.396	–	–	–	–	–	–	–	–	–	–	0.604	0.46	0.58	0.503	0.681
NCI-H1648	0.246	0.286	0.279	0.235	0.263	–	–	–	–	0.934	0.762	0.629	0.603	0.555	–	–	–	–	–	–
NCI-H1650	0.775	0.598	0.593	0.455	0.282	0.594	0.586	0.492	0.502	–	–	–	–	–	0.488	0.206	0.227	0.202	0.19	0.199
NCI-H1703	–	–	–	–	–	0.235	0.231	0.256	0.25	–	0.139	0.127	0.124	0.115	0.242	–	–	–	–	–
NCI-H2009	0.74	0.659	0.754	0.404	0.266	0.703	0.688	0.486	0.696	–	–	–	–	–	0.633	0.847	1.08	1.02	0.956	0.962
NCI-H2023	0.412	0.357	0.344	0.15	0.108	0.17	0.197	0.264	0.223	–	–	–	–	–	0.249	0.727	0.873	0.712	0.83	0.968
NCI-H2228	0.497	0.426	0.417	0.186	0.176	0.247	0.536	0.332	0.484	–	–	–	–	–	0.317	0.114	0.182	0.145	0.138	0.14
NCI-H2342	0.684	0.67	0.572	0.695	0.518	–	–	–	–	0.511	0.49	0.444	0.471	0.413	–	0.792	0.662	0.814	0.687	0.738
SK-LU-1	0.277	0.42	0.362	0.283	0.226	0.419	0.332	0.323	0.435	–	–	–	–	–	0.333	0.201	0.203	0.18	0.18	0.176
SK-MES-1	0.612	0.601	0.603	0.324	0.242	0.394	0.388	0.38	0.411	–	–	–	–	–	0.377	0.511	0.77	0.758	0.643	0.768
SW 900	0.495	0.419	0.474	0.244	0.213	–	–	–	–	0.607	0.526	0.596	0.435	0.224	–	0.193	0.183	0.137	0.195	0.167
SW 1573	0.702	0.579	0.5	0.199	0.167	0.514	0.422	0.467	0.571	–	–	–	–	–	0.456	0.165	0.257	0.427	0.0963	0.277
